# Laboratory results reported in patent US20260317314A1, “NITROGEN-CONTAINING HETEROCYCLIC COMPOUND AND USE THEREOF” (JIANGSU DEYUAN PHARMACEUTICAL CO.,LTD., priority 2023, published 2026).
# pIC50: −log10 of the molar value.
# Assays:
# plasma protein [1] = experiment: Plasma protein binding rate test, cynomolgus monkey (equilibrium dialysis); type: in vitro ADME; details: 37° C., 4 hours
# From the text: (§1) The sample was thoroughly mixed.
# MDR1-MDCKII cells = experiment: Permeability test in MDR1-MDCKII monolayer cell model; type: in vitro ADME; details: 2 μM, pH 7.40, 2.5 hours, 37±1° C.
# Experimental: (§2) Experimental objective: The permeability and efflux ratio of the compound of the present disclosure were determined using the MDR1-MDCKII monolayer cell model to assess its membrane permeability and potential for P-gp-mediated efflux transport.
# (§3) Experimental protocol: MDR1-MDCKII cells (obtained from the Netherlands Cancer Institute) were seeded in 96-well plates (obtained from Corning) at a cell density of 3.33×10^5 cells/mL and cultured for 4 to 7 days to form confluent cell monolayers. Hank's balanced salt solution containing 10 mM HEPES (pH 7.40) was used as the transport buffer. The test compound was evaluated for bidirectional transport at a concentration of 2 μM, with the DMSO concentration in the incubation system maintained below 1%. After adding the samples, the cell plate was incubated at 37±1° C., 5% CO2, and saturated humidity for 2.5 hours. All samples were quantitatively analyzed using the LC-MS/MS method. The apparent permeability coefficient (Papp, cm/s) and efflux ratio (ER) were calculated using the following formula. Apparent permeability coefficient (Papp, cm/s) was calculated using the following formula: Papp=(dCr/dt)×Vr/(A×C0). Herein, dCr/dt represents the cumulative concentration of the compound at the receiving end per unit time (μM/s); Vr is the volume of the solution at the receiving end (with solution volumes at the apical and basolateral ends being 0.075 mL and 0.250 mL, respectively); A is the relative surface area of the cell monolayer (0.143 cm^2); C0 is the initial concentration of the test substance at the dosing end (μM) or the peak area ratio of the reference substance. The efflux ratio was calculated using the following formula: ER=Papp(BA)/Papp(AB).
# plasma protein [2] = experiment: Plasma protein binding rate test, human (equilibrium dialysis); type: in vitro ADME; details: 37° C., 4 hours
# From the text: as §1
# CYP2C9 = target: T1, CYP2C9 (Homo sapiens, UniProt P11712); experiment: Human liver microsome CYP inhibition assay, CYP2C9; type: in vitro ADME; details: role: inhibitor; human liver microsomes, probe substrate; read-out: CYP2C9 half maximal inhibitory concentration IC50
# T1 construct: Mixed human liver microsomes (HLM) were purchased from Corning Inc; tissue Corning Inc; host or cells: mixed human liver microsomes (HLM)
# Experimental: (§4) Experimental objective: To evaluate the inhibitory activity of the test substance on human liver microsomal cytochrome P450 isoenzymes (CYP1A2, CYP2C9, CYP2C19, CYP2D6, CYP3A4) using a 5-in-1 probe substrate for CYP isoenzymes.
# (§5) Mixed human liver microsomes (HLM) were purchased from Corning Inc. (Steuben, New York, USA) and stored at temperatures below −70° C. prior to use.
# (§6) The working solution of the test substance, which had been diluted to a series of concentrations, was added to an incubation system containing human liver microsomes, probe substrates, and auxiliary factors of the circulatory system. A control containing solvent but no test substance served as an enzyme activity control (100%). The concentration of metabolites produced from probe substrates in the samples was determined using Liquid Chromatography-Tandem Mass Spectrometry (LC-MS/MS) method. Non-linear regression analysis of the average percentage activity of the test substance against its concentration was conducted using SigmaPlot (V.11). The IC50 values were calculated using a three-parameter or four-parameter inverse log equation.
# CYP2C19 = target: T2, CYP2C19 (Homo sapiens, UniProt P33261); experiment: Human liver microsome CYP inhibition assay, CYP2C19; type: in vitro ADME; details: role: inhibitor; human liver microsomes, probe substrate; read-out: CYP2C19 half maximal inhibitory concentration IC50
# T2 construct: Mixed human liver microsomes (HLM) were purchased from Corning Inc; tissue Corning Inc; host or cells: mixed human liver microsomes (HLM)
# Experimental: as §4, §5, §6
# CYP3A4 = target: T3, CYP3A4 (Homo sapiens, UniProt P08684); experiment: Human liver microsome CYP inhibition assay, CYP3A4; type: in vitro ADME; details: role: inhibitor; human liver microsomes, probe substrate; read-out: CYP3A4 half maximal inhibitory concentration IC50
# T3 construct: Mixed human liver microsomes (HLM) were purchased from Corning Inc; tissue Corning Inc; host or cells: mixed human liver microsomes (HLM)
# Experimental: as §4, §5, §6
# [3] = Plasma protein binding rate test, cynomolgus monkey (equilibrium dialysis); type: in vitro ADME; details: 37° C., read-out: Plasma protein binding rate (%) in cynomolgus monkeys (converted)
# From the text: as §1
# [4] = Permeability test in MDR1-MDCKII monolayer cell model; type: in vitro ADME; details: dog
# Experimental: as §2, §3
# [5] = In vitro liver microsome metabolic stability study; type: in vitro ADME; details: human liver microsomes 0.5 mg/mL, compound 1 μM, 37° C., up to 60 minutes; read-out: Intrinsic hepatic clearance CLint(liver)
# Experimental: Stock solution: 10 mM in DMSO.
# Only 54 μL of microsomal working solution, 6 μL of NADPH regeneration system working solution, and 180 μL of stop solution were added to the blank plate.
# LC-MS/MS analysis was performed.
# [6] = In vivo pharmacokinetics study in rats; set-up: species or system SD rat; details: rat, plasma, male SD rats, oral 2 mg/kg
# CYP2D6 = target: T4, CYP2D6 (Homo sapiens, UniProt P10635); experiment: Human liver microsome CYP inhibition assay, CYP2D6; type: in vitro ADME; details: role: inhibitor; human liver microsomes, probe substrate; read-out: CYP2D6 half maximal inhibitory concentration IC50
# T4 construct: Mixed human liver microsomes (HLM) were purchased from Corning Inc; tissue Corning Inc; host or cells: mixed human liver microsomes (HLM)
# Experimental: as §4, §5, §6
# [7] = Plasma protein binding rate test, human (equilibrium dialysis); type: in vitro ADME; details: 37° C.
# From the text: as §1
# CYP1A2 = target: T5, CYP1A2 (Homo sapiens, UniProt P05177); experiment: Human liver microsome CYP inhibition assay, CYP1A2; type: in vitro ADME; details: role: inhibitor; human liver microsomes, probe substrate; read-out: CYP1A2 half maximal inhibitory concentration IC50
# T5 construct: Mixed human liver microsomes (HLM) were purchased from Corning Inc; tissue Corning Inc; host or cells: mixed human liver microsomes (HLM)
# T5 sequence (P05177 1-516): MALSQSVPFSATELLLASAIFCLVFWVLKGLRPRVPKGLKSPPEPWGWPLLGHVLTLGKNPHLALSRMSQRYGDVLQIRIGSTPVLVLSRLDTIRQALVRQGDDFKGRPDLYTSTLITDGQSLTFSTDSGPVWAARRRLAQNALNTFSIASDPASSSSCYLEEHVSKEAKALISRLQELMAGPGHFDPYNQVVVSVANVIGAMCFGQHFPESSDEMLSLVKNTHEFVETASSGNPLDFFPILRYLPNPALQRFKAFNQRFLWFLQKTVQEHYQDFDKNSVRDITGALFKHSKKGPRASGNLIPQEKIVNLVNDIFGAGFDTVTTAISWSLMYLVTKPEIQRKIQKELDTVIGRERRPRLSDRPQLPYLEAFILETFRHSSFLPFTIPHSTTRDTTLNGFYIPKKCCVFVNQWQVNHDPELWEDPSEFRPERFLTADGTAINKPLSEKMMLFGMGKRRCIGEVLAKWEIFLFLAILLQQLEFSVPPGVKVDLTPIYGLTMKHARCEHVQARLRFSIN
# Experimental: as §4, §5, §6
# T2 sequence (P33261 whole entry): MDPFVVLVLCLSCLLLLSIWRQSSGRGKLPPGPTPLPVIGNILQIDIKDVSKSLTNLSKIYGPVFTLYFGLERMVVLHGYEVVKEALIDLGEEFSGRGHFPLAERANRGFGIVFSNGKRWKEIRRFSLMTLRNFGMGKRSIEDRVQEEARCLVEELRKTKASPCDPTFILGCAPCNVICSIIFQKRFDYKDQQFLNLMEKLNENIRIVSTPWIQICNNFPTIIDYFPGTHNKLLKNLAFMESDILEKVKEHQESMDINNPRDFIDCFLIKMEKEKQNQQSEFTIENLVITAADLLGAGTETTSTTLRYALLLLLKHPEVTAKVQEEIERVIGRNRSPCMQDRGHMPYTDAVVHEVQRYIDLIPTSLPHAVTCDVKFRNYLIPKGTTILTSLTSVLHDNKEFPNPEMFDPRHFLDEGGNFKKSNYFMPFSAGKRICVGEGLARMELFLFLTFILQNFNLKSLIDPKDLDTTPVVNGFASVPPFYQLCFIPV
# T4 sequence (P10635 whole entry): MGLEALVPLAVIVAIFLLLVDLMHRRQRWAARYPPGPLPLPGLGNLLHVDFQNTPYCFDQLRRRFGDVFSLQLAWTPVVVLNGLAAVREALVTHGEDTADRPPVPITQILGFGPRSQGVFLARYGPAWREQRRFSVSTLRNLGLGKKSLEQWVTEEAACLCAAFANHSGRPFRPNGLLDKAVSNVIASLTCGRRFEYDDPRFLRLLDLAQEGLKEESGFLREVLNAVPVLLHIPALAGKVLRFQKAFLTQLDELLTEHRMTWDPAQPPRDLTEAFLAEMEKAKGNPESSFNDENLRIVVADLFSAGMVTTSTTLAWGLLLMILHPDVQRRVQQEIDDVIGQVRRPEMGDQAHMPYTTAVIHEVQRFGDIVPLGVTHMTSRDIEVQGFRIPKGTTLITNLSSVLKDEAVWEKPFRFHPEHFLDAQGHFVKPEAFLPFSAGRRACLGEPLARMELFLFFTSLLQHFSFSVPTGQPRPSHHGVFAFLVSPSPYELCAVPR
# T3 sequence (P08684 whole entry): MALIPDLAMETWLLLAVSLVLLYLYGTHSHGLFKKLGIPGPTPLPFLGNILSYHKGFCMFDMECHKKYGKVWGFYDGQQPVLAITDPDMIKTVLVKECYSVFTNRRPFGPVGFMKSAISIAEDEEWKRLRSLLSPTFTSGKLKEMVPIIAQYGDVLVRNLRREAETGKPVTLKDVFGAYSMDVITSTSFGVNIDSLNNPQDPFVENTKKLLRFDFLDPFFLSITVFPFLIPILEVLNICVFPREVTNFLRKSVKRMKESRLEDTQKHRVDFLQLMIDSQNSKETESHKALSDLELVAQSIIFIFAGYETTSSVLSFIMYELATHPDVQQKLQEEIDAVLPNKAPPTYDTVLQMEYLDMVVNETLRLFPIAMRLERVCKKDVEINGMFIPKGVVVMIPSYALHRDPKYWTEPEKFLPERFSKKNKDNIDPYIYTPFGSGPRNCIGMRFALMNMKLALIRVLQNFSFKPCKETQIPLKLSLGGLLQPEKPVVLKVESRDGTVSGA
# T1 sequence (P11712 whole entry): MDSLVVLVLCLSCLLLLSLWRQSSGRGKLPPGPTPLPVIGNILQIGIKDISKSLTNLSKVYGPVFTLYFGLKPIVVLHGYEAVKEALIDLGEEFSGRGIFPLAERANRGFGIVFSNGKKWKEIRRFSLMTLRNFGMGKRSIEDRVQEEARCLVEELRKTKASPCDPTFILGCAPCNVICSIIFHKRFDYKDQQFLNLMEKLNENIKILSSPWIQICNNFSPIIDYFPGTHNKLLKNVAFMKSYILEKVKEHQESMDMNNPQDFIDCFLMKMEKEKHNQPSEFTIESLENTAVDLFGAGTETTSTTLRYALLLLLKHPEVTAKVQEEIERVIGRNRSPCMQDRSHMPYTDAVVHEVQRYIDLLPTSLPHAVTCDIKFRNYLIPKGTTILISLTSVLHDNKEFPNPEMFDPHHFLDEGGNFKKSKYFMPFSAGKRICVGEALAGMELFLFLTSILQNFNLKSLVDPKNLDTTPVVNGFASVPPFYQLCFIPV
compound,measurement,setting,value
"CCC(=O)N[C@H]1CCOc2c(-c3ccc4c(ccc(=O)n4C)c3)cncc21 (single isomer, unassigned) [Compound 044]",Plasma protein binding rate (%) in cynomolgus monkeys,plasma protein [1],66.4%
same,Apparent permeability coefficient (Papp (AB)),MDR1-MDCKII cells,11.0 10^-6 cm/s
same,Human plasma protein binding rate (%),plasma protein [2],70.5%
"CCC(=O)NC1CCOc2c(-c3cc4c(s3)N(C)C(=O)CC4)cncc21 (single isomer, unassigned) [Compound 046]",pIC50,CYP2C9,< 4.30
same,pIC50,CYP2C19,< 4.30
same,pIC50,CYP3A4,< 4.30
same,fraction unbound at 4 h,[3],0.304
same,"efflux ratio at 2.5 h, 2 µM","[4]; MDCK-MDR1, pH 7.4, ER=Papp(BA)/Papp(AB)",1.17
same,"Papp A→B at 2.5 h, 2 µM","[4]; MDCK-MDR1, pH 7.4, pH 7.40, 2.5 hours, 37±1° C., read-out: Apparent permeability coefficient (Papp (AB))",18 ×10⁻⁶ cm/s
same,CLint scaled at 1 µM,[5],< 8.6 mL/min/kg
same,bioavailability,[6],71%
same,half-life,[6],3.23 h
same,Cmax,[6],7.86 µM
same,AUC(0-t) at 24 h,[6]; read-out: AUC0-24 h,36.6 µM·h
same,pIC50,CYP2D6,< 4.30
same,fraction unbound at 4 h,[7],0.166
same,pIC50,CYP1A2,< 4.30
